This is an account of results in PMC4913735, “Non‐glycosidic compounds can stimulate both human and mouse iNKT cells” (European Journal of Immunology, 2016).

Molecules are shown by their SMILES.

The assay addresses human iNKT‐cell TCR (Homo sapiens, UniProt A0A0B4J240+P15813). Nature of the assay: SPR (BIAcore) binding of soluble human iNKT‐cell TCR to hCD1d/lipid complexes. How it is done:
Two analogs of ThrCer, ThrCer 6, and ThrCer 7 were synthesized. […] We first carried out measurements to assess the binding affinity of these ThrCer analogs to human iNKT‐cell TCR (Fig. 1B). Recombinant human CD1d (hCD1d) molecules were refolded in vitro with ThrCer 6 and ThrCer 7 separately and coupled to BIAcore chips, over which refolded human iNKT‐cell TCR was injected at different concentrations 34. […] Importantly, these findings were consistent with data obtained using tetrameric human iNKT‐cell TCRs as a staining reagent to identify lipid/CD1d complexes on the surface of C1R cells that had been transfected with hCD1d cDNA (hCD1d C1R cells) and subsequently loaded with the different lipids 34 (Fig. 1C).
Soluble human invariant TCR was generated as previously described 34 where both the Vα24 and Vβ11 chains were individually overexpressed in Escherichia coli, purified from the inclusion bodies, then refolded, and purified to generate the TCR heterodimers, according to Boulter et al. 43. The murine TCR was generated according to Pellici et al. as a chimeric molecule (with variable murine regions and human constant regions) 44. The hybrid alpha chains and beta chains were individually expressed in E. coli and purified from the inclusion bodies, then refolded as above.
SPR experiments were performed with a BIAcore 3000 to measure the affinity and kinetics of iNKT‐cell TCR binding to human CD1d–ligand complexes. In brief, approximately 1000 RU of the biotinylated hCD1d–lipid complexes were immobilized onto streptavidin‐coated CM5 sensor chips (BIAcore). Aliquots of purified TCR with increasing concentrations were passed over immobilized hCD1d–lipid complex at a flow rate of 10 μL/min for the equilibrium‐binding experiments or 50 μL/min for the kinetics experiments. The dissociation constants, K d, were calculated by fitting the data from the equilibrium‐binding experiment to a non‐linear regression saturation binding model (GraphPad Prism 5.0), whereas the k off data were estimated from the kinetics experiments by fitting the data with the built‐in models of the BIAeval3.1 software (BIAcore).
(SPR reads the build-up and loss of mass on a sensor chip optically.)

Chain of human iNKT‐cell TCR (P01848 1-93): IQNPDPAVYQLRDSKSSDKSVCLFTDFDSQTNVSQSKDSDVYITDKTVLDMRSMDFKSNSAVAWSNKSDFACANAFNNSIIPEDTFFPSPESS
Chain of human iNKT‐cell TCR (P61769 21-119, further chain): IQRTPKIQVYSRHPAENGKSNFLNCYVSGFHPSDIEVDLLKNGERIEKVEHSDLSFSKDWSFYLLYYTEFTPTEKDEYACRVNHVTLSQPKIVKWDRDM
Chain of human iNKT‐cell TCR (A0A0B4J240 22-114): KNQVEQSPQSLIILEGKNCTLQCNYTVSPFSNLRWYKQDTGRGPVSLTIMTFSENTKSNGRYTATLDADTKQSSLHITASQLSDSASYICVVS
Chain of human iNKT‐cell TCR (P01850 1-129, further chain): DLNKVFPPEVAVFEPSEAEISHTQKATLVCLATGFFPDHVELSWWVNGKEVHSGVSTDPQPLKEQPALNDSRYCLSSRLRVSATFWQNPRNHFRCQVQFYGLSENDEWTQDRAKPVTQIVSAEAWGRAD
Chain of human iNKT‐cell TCR (P15813 20-301): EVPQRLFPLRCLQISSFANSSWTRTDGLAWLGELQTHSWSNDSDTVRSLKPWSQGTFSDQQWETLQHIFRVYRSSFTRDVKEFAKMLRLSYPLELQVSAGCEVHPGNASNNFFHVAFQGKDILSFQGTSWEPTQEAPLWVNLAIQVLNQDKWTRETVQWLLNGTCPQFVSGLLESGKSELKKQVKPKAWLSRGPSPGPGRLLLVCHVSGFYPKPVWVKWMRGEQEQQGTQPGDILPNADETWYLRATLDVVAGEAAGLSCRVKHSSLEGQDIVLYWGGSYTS

`CCCCCCCCCCCCCCCCCCCCCCCCCC(=O)N[C@@H](COC[C@H](O)[C@@H](O)CO)[C@H](O)[C@H](O)CCCCCCCCCCCCCC` [ThrCer, threitolceramide, reference compound]: the Kd (SPR equilibrium binding, hCD1d refolded with lipid, read-out: K d, human iNKT‐cell TCR binding to hCD1d/lipid complex) was 3.15 µM. In addition, the koff (SPR kinetics experiment, read-out: k off, human iNKT‐cell TCR from hCD1d/lipid complex) was found to be 0.114 s⁻¹.
